According to PubChem BioAssay (NCI):
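Test compounds were applied to cells in 96-well plates for 48 hours at 5 doses. TGI denotes the concentration required for complete inhibition of growth.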

Assays:
Assay in all cases: NCI anticancer screen, dose series, 48 h
SNB-19 CNS = system: SNB-19 CNS
LXFL 529 NSCLC = system: LXFL 529 NSCLC
SNB-78 CNS = system: SNB-78 CNS
NCI-H226 lung = system: NCI-H226 lung
SK-MEL-28 melanoma = system: SK-MEL-28 melanoma
LOX IMVI melanoma = system: LOX IMVI melanoma
SK-MEL-2 melanoma = system: SK-MEL-2 melanoma
MALME-3M melanoma = system: MALME-3M melanoma
COLO 205 colon = system: COLO 205 colon
XF 498 CNS = system: XF 498 CNS
SR leukemia = system: SR leukemia
CCRF-CEM leukemia = system: CCRF-CEM leukemia
K-562 leukemia = system: K-562 leukemia
UACC-257 melanoma = system: UACC-257 melanoma
HCC-2998 colon = system: HCC-2998 colon
KM20L2 colon = system: KM20L2 colon
EKVX NSCLC = system: EKVX NSCLC
U251 CNS = system: U251 CNS
IGROV1 ovarian = system: IGROV1 ovarian
HOP-62 NSCLC = system: HOP-62 NSCLC
DMS 273 small cell lung = system: DMS 273 small cell lung
TK-10 renal = system: TK-10 renal
MOLT-4 leukemia = system: MOLT-4 leukemia
SN12C renal = system: SN12C renal
SF-295 CNS = system: SF-295 CNS
SF-539 CNS = system: SF-539 CNS
NCI-H522 lung = system: NCI-H522 lung
SK-MEL-5 melanoma = system: SK-MEL-5 melanoma
M14 melanoma = system: M14 melanoma
NCI-H460 lung = system: NCI-H460 lung
786-0 renal = system: 786-0 renal
HCT-116 colon = system: HCT-116 colon
HT29 colon = system: HT29 colon
ACHN renal = system: ACHN renal
SW-620 colon = system: SW-620 colon
A549 NSCLC = system: A549 NSCLC
DLD-1 colon = system: DLD-1 colon
OVCAR-8 ovarian = system: OVCAR-8 ovarian
KM12 colon = system: KM12 colon
SK-OV-3 ovarian = system: SK-OV-3 ovarian
NCI-H23 lung = system: NCI-H23 lung
SF-268 CNS = system: SF-268 CNS
UACC-62 melanoma = system: UACC-62 melanoma
HCT-15 colon = system: HCT-15 colon
M19-MEL melanoma = system: M19-MEL melanoma
OVCAR-4 ovarian = system: OVCAR-4 ovarian
SNB-75 CNS = system: SNB-75 CNS
RXF 393 renal = system: RXF 393 renal
HL-60(TB) leukemia = system: HL-60(TB) leukemia
OVCAR-3 ovarian = system: OVCAR-3 ovarian
UO-31 renal = system: UO-31 renal
BT-549 breast = system: BT-549 breast
HS 578T breast = system: HS 578T breast
MDA-N = system: MDA-N
A498 renal = system: A498 renal
CAKI-1 renal = system: CAKI-1 renal
T-47D breast = system: T-47D breast
MCF7 breast = system: MCF7 breast
RPMI-8226 leukemia = system: RPMI-8226 leukemia
OVCAR-5 ovarian = system: OVCAR-5 ovarian
MDA-MB-231 breast = system: MDA-MB-231 breast
PC-3 prostate = system: PC-3 prostate
HOP-92 NSCLC = system: HOP-92 NSCLC
NCI/ADR-RES ovarian = system: NCI/ADR-RES ovarian
MDA-MB-435 = system: MDA-MB-435
DU-145 prostate = system: DU-145 prostate

Structure (SMILES): CC(=O)NC1=C(NCCO)C(=O)c2ccccc2C1=O
- TGI (SNB-19 CNS): > 50 µM
- TGI (LXFL 529 NSCLC): > 50 µM
- TGI (SNB-78 CNS): > 50 µM
- TGI (NCI-H226 lung): > 50 µM
- TGI (SK-MEL-28 melanoma): > 50 µM
- TGI (LOX IMVI melanoma): > 50 µM
- TGI (SK-MEL-2 melanoma): > 50 µM
- TGI (MALME-3M melanoma): 46 µM
- TGI (COLO 205 colon): > 50 µM
- TGI (XF 498 CNS): > 50 µM
- TGI (SR leukemia): > 50 µM
- TGI (CCRF-CEM leukemia): > 50 µM
- TGI (K-562 leukemia): > 50 µM
- TGI (UACC-257 melanoma): > 50 µM
- TGI (HCC-2998 colon): > 50 µM
- TGI (KM20L2 colon): > 50 µM
- TGI (EKVX NSCLC): > 50 µM
- TGI (U251 CNS): > 50 µM
- TGI (IGROV1 ovarian): > 50 µM
- TGI (HOP-62 NSCLC): > 50 µM
- TGI (DMS 273 small cell lung): > 50 µM
- TGI (TK-10 renal): > 50 µM
- TGI (MOLT-4 leukemia): > 50 µM
- TGI (SN12C renal): > 50 µM
- TGI (SF-295 CNS): > 50 µM
- TGI (SF-539 CNS): > 50 µM
- TGI (NCI-H522 lung): > 50 µM
- TGI (SK-MEL-5 melanoma): > 50 µM
- TGI (M14 melanoma): > 50 µM
- TGI (NCI-H460 lung): > 50 µM
- TGI (786-0 renal): > 50 µM
- TGI (HCT-116 colon): > 50 µM
- TGI (HT29 colon): > 50 µM
- TGI (ACHN renal): > 50 µM
- TGI (SW-620 colon): > 50 µM
- TGI (A549 NSCLC): > 50 µM
- TGI (DLD-1 colon): > 50 µM
- TGI (OVCAR-8 ovarian): > 50 µM
- TGI (KM12 colon): > 50 µM
- TGI (SK-OV-3 ovarian): > 50 µM
- TGI (NCI-H23 lung): > 50 µM
- TGI (SF-268 CNS): > 50 µM
- TGI (UACC-62 melanoma): > 50 µM
- TGI (HCT-15 colon): > 50 µM
- TGI (M19-MEL melanoma): 18.6 µM
- TGI (OVCAR-4 ovarian): > 50 µM
- TGI (SNB-75 CNS): > 50 µM
- TGI (RXF 393 renal): > 50 µM
- TGI (HL-60(TB) leukemia): > 50 µM
- TGI (OVCAR-3 ovarian): > 50 µM
- TGI (UO-31 renal): > 50 µM

Structure (SMILES): CN(C)Cc1c[nH]c2nc[nH]c(=O)c12
- TGI (BT-549 breast): > 100 µM
- TGI (SNB-19 CNS): > 100 µM
- TGI (HS 578T breast): > 100 µM
- TGI (MDA-N): 67.7 µM
- TGI (NCI-H226 lung): > 100 µM
- TGI (SK-MEL-28 melanoma): > 100 µM
- TGI (LOX IMVI melanoma): 40.9 µM
- TGI (SK-MEL-2 melanoma): > 100 µM
- TGI (MALME-3M melanoma): > 100 µM
- TGI (A498 renal): > 100 µM
- TGI (CAKI-1 renal): > 100 µM
- TGI (COLO 205 colon): > 100 µM
- TGI (SR leukemia): 53.7 µM
- TGI (CCRF-CEM leukemia): 51 µM
- TGI (K-562 leukemia): 44.4 µM
- TGI (UACC-257 melanoma): 52 µM
- TGI (T-47D breast): > 100 µM
- TGI (EKVX NSCLC): > 100 µM
- TGI (U251 CNS): > 100 µM
- TGI (MCF7 breast): 67.7 µM
- TGI (IGROV1 ovarian): > 100 µM
- TGI (HOP-62 NSCLC): > 100 µM
- TGI (TK-10 renal): > 100 µM
- TGI (MOLT-4 leukemia): 24.7 µM
- TGI (SN12C renal): > 100 µM
- TGI (RPMI-8226 leukemia): 59.4 µM
- TGI (OVCAR-5 ovarian): > 100 µM
- TGI (SF-295 CNS): > 100 µM
- TGI (SF-539 CNS): 48.9 µM
- TGI (NCI-H522 lung): > 100 µM
- TGI (MDA-MB-231 breast): > 100 µM
- TGI (SK-MEL-5 melanoma): > 100 µM
- TGI (M14 melanoma): > 100 µM
- TGI (PC-3 prostate): > 100 µM
- TGI (NCI-H460 lung): 61 µM
- TGI (786-0 renal): 76.4 µM
- TGI (HCT-116 colon): 51.5 µM
- TGI (HT29 colon): > 100 µM
- TGI (HOP-92 NSCLC): 85.8 µM
- TGI (ACHN renal): > 100 µM
- TGI (SW-620 colon): > 100 µM
- TGI (NCI/ADR-RES ovarian): > 100 µM
- TGI (A549 NSCLC): > 100 µM
- TGI (MDA-MB-435): > 100 µM
- TGI (DU-145 prostate): 64.8 µM
- TGI (OVCAR-8 ovarian): > 100 µM
- TGI (KM12 colon): > 100 µM
- TGI (SK-OV-3 ovarian): > 100 µM
- TGI (NCI-H23 lung): > 100 µM
- TGI (SF-268 CNS): > 100 µM
- TGI (UACC-62 melanoma): 39.7 µM
- TGI (HCT-15 colon): > 100 µM
- TGI (OVCAR-4 ovarian): > 100 µM
- TGI (SNB-75 CNS): > 100 µM
- TGI (RXF 393 renal): 45.9 µM
- TGI (HL-60(TB) leukemia): 42.4 µM
- TGI (OVCAR-3 ovarian): > 100 µM
- TGI (UO-31 renal): > 100 µM
